Source: ChEMBL document CHEMBL3877311, “Discovery of a novel series of N-hydroxypyridone derivatives protecting astrocytes against hydrogen peroxide-induced toxicity via improved mitochondrial functionality” (Bioorg Med Chem, 2017)
Activity calls are given as the source filed them. The rule behind the calls is not given here.

What was measured:
[1] = test system: Astrocyte; experiment: Inhibition of H2O2-induced mitochondrial metabolic dysfunction in Sprague-Dawley rat primary astrocytes at 0.001 to 10 uM by resazurin-dye based presto blue assay relative to control; type: functional
[2] = Induction of mitochondrial membrane depolarization in Sprague-Dawley rat primary astrocytes at 1 uM measured every 5 mins for 2 hrs by TMRM dye based fluorescence assay; type: cell-based; settings: astrocyte
[3] = Effect on ATP turn over-linked oxygen consumption rate in Sprague-Dawley rat primary astrocytes at 1 uM; type: ADME, cell-based; settings: astrocyte
[4] = Effect on basal extracellular acidification rate in Sprague-Dawley rat primary astrocytes at 1 uM; type: ADME, cell-based; settings: astrocyte
[5] = test system: Astrocyte; experiment: Cytoprotective activity in Sprague-Dawley rat primary astrocytes assessed as inhibition of H2O2-induced mitochondrial membrane depolarization at 1 uM measured every 5 mins for 2 hrs by TMRM dye based fluorescence assay; type: functional, cell-based
[6] = Effect on basal oxygen consumption rate in Sprague-Dawley rat primary astrocytes at 1 uM; type: ADME, cell-based; settings: astrocyte
[7] = test system: Astrocyte; experiment: Inhibition of H2O2-induced mitochondrial metabolic dysfunction in Sprague-Dawley rat primary astrocytes assessed as stimulation of glycolytic metabolism at 1 uM; type: functional, cell-based
[8] = Cytoprotective activity in Sprague-Dawley rat primary astrocytes assessed as inhibition of H2O2-induced cell death by LDH release assay; type: functional, cell-based; settings: Astrocyte
[9] = Cytoprotective activity in Sprague-Dawley rat primary astrocytes assessed as inhibition of H2O2-induced cell death at 0.001 to 10 uM by LDH release assay relative to control; type: functional, Astrocyte
[10] = test system: Astrocyte; experiment: Inhibition of H2O2-induced mitochondrial metabolic dysfunction in Sprague-Dawley rat primary astrocytes assessed as stimulation of extracellular acidification rate at 1 uM; type: functional, cell-based
[11] = test system: Astrocyte; experiment: Inhibition of H2O2-induced mitochondrial metabolic dysfunction in Sprague-Dawley rat primary astrocytes by resazurin-dye based presto blue assay; type: functional, cell-based
[12] = test system: Astrocyte; experiment: Cytoprotective activity in Sprague-Dawley rat primary astrocytes assessed as inhibition of H2O2-induced decrease in oxygen consumption rate at 1 uM; type: functional, cell-based
[13] = organism: Rattus norvegicus; experiment: Cytotoxicity against Sprague-Dawley rat primary astrocytes assessed as cell death up to 10 uM by LDH release assay; type: toxicity; settings: astrocyte

SMILES	Imax [1] [%]	Activity [2]	Activity [3]	Activity [4]	inhibition [5]	Activity [6]	inhibition [7]	IC50 [8] [nM]	Imax [9] [%]	inhibition [10]	IC50 [11] [nM]	inhibition [12]	Activity [13]
Cc1cc(-c2cccc(F)c2)n(O)c(=O)c1	0.75	–	–	–	–	–	–	–	–	–	–	–	–
COc1ccccc1-c1ccc(-c2cc(C)cc(=O)n2O)cc1	58.6	Non-Toxic	Non-Toxic	Non-Toxic	Active	Non-Toxic	Active	156	58.8	Active	340	Active	Non-Toxic
Cc1cc(C2CCCCC2)n(O)c(=O)c1 [CICLOPIROX]	43.72	–	–	–	Active	–	–	250	50.3	–	330	–	–
